Data taken from ChEMBL document CHEMBL6096672, “In Silico Enabled Discovery of KAI-11101, a Preclinical DLK Inhibitor for the Treatment of Neurodegenerative Disease and Neuronal Injury” (J Med Chem, 2025).
≈ marks a conversion by molar mass, not a printed value. Calls of active or inactive are those of the source. The rule behind the calls is not given here.

Experiments:
[1] = Inhibition of DLK in C57/Bl6 mouse DRG neuron model of paclitaxel-induced axon degeneration assessed as decrease in p-cJun level measured after 20 hrs by immunofluorescence based analysis; format: cell-based
[2] = Inhibition of GST-tagged DLK (1 to 520 residues)(unknown origin) using MKK4 as substrate preincubated for 60 mins followed by substrate/ATP addition measured after 30 mins by HTRF assay; parameters: species or system Homo sapiens
[3] = Inhibition of human DLK transfected in HEK293-T-REx cells assessed as decrease in JNK phosphorylation incubated for 5 hrs by HTRF assay; format: cell-based
[4] = Protection against paclitaxel-induced axon degeneration in C57/Bl6 mouse DRG neurons at 0.74 uM measured after 72 hrs by immunofluorescence based analysis relative to control; format: functional; details: C57/Bl6, DRG neuron
[5] = Inhibition of GST-tagged LZK (1 to 966 residues)(unknown origin) using MKK4 as substrate preincubated for 60 mins followed by substrate/ATP addition measured after 30 mins by HTRF assay; parameters: species or system Homo sapiens
[6] = Protection against paclitaxel-induced axon degeneration in C57/Bl6 mouse DRG neurons measured after 72 hrs by immunofluorescence based analysis; format: functional, cell-based; details: drg neuron
[7] = Intrinsic clearance in human liver microsomes; format: ADME, Microsome; details: read-out: CLH
[8] = Kinetic solubility of compound at pH 6.8; format: physicochemical; details: buffer, read-out: Kinetic_solubility
[9] = Ratio of unbound drug concentration in brain to plasma of mouse at 5 mg/kg; format: ADME, organism-based; details: brain and plasma, read-out: K(p,uu,brain)
[10] = Oral bioavailability in mouse at 5 mg/kg; format: ADME, organism-based; details: in vivo
[11] = Apparent permeability across apical to basal side in MDCK-MDR1 cells; format: ADME, cell-based, Canis lupus familiaris; details: dog
[12] = target: Voltage-gated inwardly rectifying potassium channel KCNH2 (Homo sapiens, UniProt Q12809); experiment: Inhibition of hERG by patch-clamp method; format: toxicity
[13] = Clearance in mouse at 5 mg/kg, po; format: ADME, organism-based; details: in vivo
[14] = Half life in mouse at 5 mg/kg, po; format: ADME, organism-based; details: in vivo
[15] = Efflux ratio in MDCK-MDR1 cells; format: ADME, cell-based, Canis lupus familiaris; details: dog
[16] = Energy of neutralization, pKa of compound; format: physicochemical
[17] = Intrinsic clearance in mouse liver microsomes; format: ADME, Microsome; details: read-out: CLH
[18] = Half life in IV-dosed rat; format: ADME; details: in vivo
[19] = Oral bioavailability in rat; format: ADME, organism-based; details: in vivo
[20] = Oral bioavailability in dog; format: ADME, organism-based, Canis lupus familiaris; details: in vivo
[21] = Ratio of unbound drug concentration in brain to plasma of CD-1 mouse at 5 to 75 mg/kg, po; format: ADME, organism-based; details: brain and plasma, dose 5-75 mg/kg, read-out: K(p,uu,brain)
CYP3A4 = CYP3A4 (Homo sapiens, UniProt P08684); experiment: Time dependent inhibition of CYP3A4 (unknown origin) at 30 uM incubated for 30 mins relative to control; format: ADME; details: read-out: TDI
[22] = Half life in IV-dosed cynomolgous monkey; format: ADME, Macaca fascicularis; details: cynomolgus monkey, in vivo
[23] = In vivo inhibition of DLK in mouse cerebellum at 3 to 75 mg/kg, po measured after 2 hrs; format: functional, organism-based
[24] = Half life in IV-dosed mouse; format: ADME; details: in vivo
[25] = Clearance in IV-dosed dog; format: ADME, Canis lupus familiaris; details: in vivo
[26] = Oral bioavailability in cynomolgous monkey; format: ADME, organism-based, Macaca fascicularis; details: cynomolgus monkey, in vivo
[27] = Volume of distribution at steady state in IV-dosed mouse; format: ADME; details: in vivo, read-out: Vdss
[28] = Half life in IV-dosed dog; format: ADME, Canis lupus familiaris; details: in vivo
[29] = Volume of distribution at steady state in IV-dosed dog; format: ADME, Canis lupus familiaris; details: in vivo, read-out: Vdss
[30] = Drug metabolism in human hepatocytes assessed as formation of N-methylated metabolites; format: ADME, cell-based, Hepatocyte
[31] = Drug metabolism in PO-dosed dog plasma assessed as formation of N-methylated metabolites; format: ADME, Canis lupus familiaris
[32] = Cytotoxicity against human HepG2 cells; format: toxicity, cell-based
[33] = Volume of distribution at steady state in IV-dosed cynomolgous monkey; format: ADME, Macaca fascicularis; details: cynomolgus monkey, in vivo, read-out: Vdss
[34] = Unbound fraction in mouse brain at 3 to 75 mg/kg, po measured after 2 hrs; format: ADME, organism-based; details: in vivo, dose 3-75 mg/kg
[35] = Intrinsic clearance in dog liver microsomes; format: ADME, Canis lupus familiaris, Microsome; details: read-out: CLH
[36] = Oral bioavailability in mouse; format: ADME, organism-based; details: in vivo
[37] = Total drug concentration in mouse brain at 3 to 75 mg/kg, po measured after 2 hrs; format: ADME, organism-based; details: dose 3-75 mg/kg, read-out: Ct
[38] = Drug metabolism in dog hepatocytes assessed as formation of N-methylated metabolites; format: ADME, cell-based, Canis lupus familiaris, Hepatocyte
[39] = Drug metabolism in cynomolgous monkey hepatocytes assessed as formation of N-methylated metabolites; format: ADME, cell-based, Macaca fascicularis, Hepatocyte; details: cynomolgus monkey
[40] = Drug metabolism in rat hepatocytes assessed as formation of N-methylated metabolites; format: ADME, cell-based, Hepatocyte
[41] = Volume of distribution at steady state in IV-dosed rat; format: ADME; details: in vivo, read-out: Vdss
[42] = Total unbound drug concentration in mouse brain at 3 to 75 mg/kg, po measured after 2 hrs; format: ADME, organism-based; details: in vivo, dose 3-75 mg/kg
[43] = Clearance in IV-dosed rat; format: ADME; details: in vivo
CYP3A [44] = target: T1, CYP3A (Homo sapiens, UniProt P08684+P20815+P24462+Q9HB55); experiment: Binding affinity to CYP3A in human liver microsomes assessed as inactivation constant; format: ADME, Microsome
[45] = Ratio of unbound drug concentration in brain to plasma of rat; format: ADME; details: brain and plasma, read-out: K(p,uu,brain)
[46] = Clearance in IV-dosed cynomolgous monkey; format: ADME, Macaca fascicularis; details: cynomolgus monkey, in vivo
CYP3A [47] = target: T1, CYP3A; experiment: Binding affinity to CYP3A in human liver microsomes assessed as inhibition constant; format: ADME, Microsome
[48] = Clearance in IV-dosed mouse; format: ADME; details: in vivo
DRG neuron = experiment: Protection against paclitaxel-induced axon degeneration in C57/Bl6 mouse DRG neurons at 1 uM measured after 72 hrs by immunofluorescence based analysis; format: functional, cell-based

Sequence of Voltage-gated inwardly rectifying potassium channel KCNH2 (Q12809 whole entry): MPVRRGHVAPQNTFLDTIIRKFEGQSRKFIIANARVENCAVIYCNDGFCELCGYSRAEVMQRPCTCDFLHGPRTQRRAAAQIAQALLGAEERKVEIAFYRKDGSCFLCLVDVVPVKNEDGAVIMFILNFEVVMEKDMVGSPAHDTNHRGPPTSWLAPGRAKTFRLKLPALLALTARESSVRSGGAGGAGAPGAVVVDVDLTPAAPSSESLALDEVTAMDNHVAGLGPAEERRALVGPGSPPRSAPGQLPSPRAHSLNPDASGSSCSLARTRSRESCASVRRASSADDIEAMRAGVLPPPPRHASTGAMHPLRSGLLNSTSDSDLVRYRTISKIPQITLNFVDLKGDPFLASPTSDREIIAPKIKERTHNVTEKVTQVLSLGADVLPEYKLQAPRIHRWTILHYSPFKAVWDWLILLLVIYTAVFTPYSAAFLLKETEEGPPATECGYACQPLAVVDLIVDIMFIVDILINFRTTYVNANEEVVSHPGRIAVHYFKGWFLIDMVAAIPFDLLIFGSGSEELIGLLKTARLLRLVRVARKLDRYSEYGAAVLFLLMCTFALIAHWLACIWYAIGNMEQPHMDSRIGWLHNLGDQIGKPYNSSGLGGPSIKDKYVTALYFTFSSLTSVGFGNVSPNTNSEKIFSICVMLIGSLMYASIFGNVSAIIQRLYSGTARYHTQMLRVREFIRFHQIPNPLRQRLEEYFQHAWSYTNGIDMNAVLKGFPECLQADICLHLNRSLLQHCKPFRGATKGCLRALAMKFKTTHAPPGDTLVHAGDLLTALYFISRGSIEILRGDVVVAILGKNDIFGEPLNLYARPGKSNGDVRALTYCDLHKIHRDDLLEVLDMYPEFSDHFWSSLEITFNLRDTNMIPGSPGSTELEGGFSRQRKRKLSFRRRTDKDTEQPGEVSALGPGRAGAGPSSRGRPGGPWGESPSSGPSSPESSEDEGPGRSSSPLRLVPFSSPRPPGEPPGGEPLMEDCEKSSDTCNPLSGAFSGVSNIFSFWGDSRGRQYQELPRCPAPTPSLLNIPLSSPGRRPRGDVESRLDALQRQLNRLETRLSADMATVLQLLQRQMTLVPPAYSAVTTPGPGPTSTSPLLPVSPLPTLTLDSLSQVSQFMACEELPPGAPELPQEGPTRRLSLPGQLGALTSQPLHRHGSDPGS
Sequence of CYP3A4 (P08684 whole entry): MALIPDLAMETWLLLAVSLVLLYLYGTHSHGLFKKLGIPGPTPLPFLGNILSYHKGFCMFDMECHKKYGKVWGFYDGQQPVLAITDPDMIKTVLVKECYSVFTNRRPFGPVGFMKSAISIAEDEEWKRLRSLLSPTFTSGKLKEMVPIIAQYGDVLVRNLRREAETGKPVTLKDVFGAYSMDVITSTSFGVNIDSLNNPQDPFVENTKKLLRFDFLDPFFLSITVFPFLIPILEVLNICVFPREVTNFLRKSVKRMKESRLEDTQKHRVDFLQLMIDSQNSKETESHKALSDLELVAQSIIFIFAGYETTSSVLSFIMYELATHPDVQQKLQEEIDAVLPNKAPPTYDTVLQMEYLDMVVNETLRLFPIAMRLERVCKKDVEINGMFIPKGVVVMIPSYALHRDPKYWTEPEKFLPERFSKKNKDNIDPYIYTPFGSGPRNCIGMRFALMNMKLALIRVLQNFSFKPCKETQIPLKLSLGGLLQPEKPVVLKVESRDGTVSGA

Nc1ncc(-c2cc(N3C[C@@H]4C[C@H]3CO4)nc(N3CCC(F)(F)C3)n2)cc1OC(F)F [GDC-0134]
IC50 [1]: 301 nM
Ki [2]: 3.5 nM
IC50 [3]: 79 nM
Emax at 0.74 µM [4]: 75%
Ki [5]: 7 nM
EC50 [6]: 475 nM

CCc1nc(-c2cnc(N)c(C(F)(F)F)c2)c2ccc(C3CCN(C)CC3)cn12
microsomal CLint [7]: 3 µL/min/mg
Ki [2]: 0.3 nM
solubility kinetic [8]: 268 µM (≈ 108 µg/mL)
Kp uu [9]: 0.18
bioavailability [10]: 85%
Papp A→B [11]: 10.6 ×10⁻⁶ cm/s
IC50 [12]: < 400 nM
CL/F [13]: 43 mL/min/kg
half-life [14]: 3.8 h
IC50 [3]: 23 nM
efflux ratio [15]: 1.6
pKa [16]: 9.2
microsomal CLint [17]: 15 µL/min/mg

CCn1nc(-c2cnc(N)c(OC(F)F)c2)c2ccn([C@@H]3CCC(F)(F)C[C@@H]3OC)c(=O)c21
half-life [18]: 7.2 h
bioavailability [19]: 57%
bioavailability [20]: 81%
microsomal CLint [7]: < 3 µL/min/mg
IC50 [1]: 95 nM
Kp uu [21]: 0.3
inhibition at 0.5 h, 30 µM (CYP3A4): 27.5%
half-life [22]: 12 h
Ki [2]: 0.69 nM
IC50 [23]: 31 nM
half-life [24]: 4.8 h
clearance [25]: 24 mL/min/kg
bioavailability [26]: 52%
Vd [27]: 1.6 L/kg
half-life [28]: 6.6 h
IC50 [12]: 9000 nM
Vd [29]: 8.8 L/kg
Drug metabolism [30]: metabolite_detected
Drug metabolism [31]: metabolite_detected
IC50 [32]: 52000 nM
Vd [33]: 4.8 L/kg
IC50 [3]: 51 nM
Fu [34]: 1.5%
microsomal CLint [35]: 5.8 µL/min/mg
bioavailability [36]: 53%
Emax at 0.74 µM [4]: 72%
concentration at 2 h [37]: 1000 ng/g
Drug metabolism [38]: metabolite_detected
Drug metabolism [39]: metabolite_detected
Drug metabolism [40]: metabolite_detected
Vd [41]: 4.3 L/kg
Drug uptake(free) [42]: 14.5 ng/g
clearance [43]: 8.3 mL/min/kg
Ki [5]: 15 nM
kinact (CYP3A [44]): 0.00117 s⁻¹
Kp uu [45]: 0.6
clearance [46]: 5.5 mL/min/kg
EC50 [6]: 363 nM
microsomal CLint [17]: 18 µL/min/mg
Ki (CYP3A [47]): 170000 nM
clearance [48]: 5.3 mL/min/kg

CCc1nc(-c2cnc(N)c(C(F)(F)F)c2)c2ccc([C@H]3COCCN3C)cn12
microsomal CLint [7]: 18 µL/min/mg
solubility kinetic [8]: 320 µM (≈ 130 µg/mL)
Kp uu [9]: 0.17
bioavailability [10]: 112%
Papp A→B [11]: 16.2 ×10⁻⁶ cm/s
CL/F [13]: 68 mL/min/kg
half-life [14]: 0.6 h
efflux ratio [15]: 1
microsomal CLint [17]: 20 µL/min/mg

CCc1nc(-c2cnc(N)c(OC(F)F)c2)c2ccc([C@H]3COCCN3C)cn12
microsomal CLint [7]: 8 µL/min/mg
solubility kinetic [8]: 284 µM (≈ 115 µg/mL)
Kp uu [9]: 0.14
bioavailability [10]: 144%
Papp A→B [11]: 30.1 ×10⁻⁶ cm/s
CL/F [13]: 109 mL/min/kg
half-life [14]: 0.3 h
efflux ratio [15]: 0.8
microsomal CLint [17]: 17 µL/min/mg

CCc1nc(-c2cnc(N)c(OC(F)(F)F)c2)c2ccc([C@H]3COCCN3C)cn12
microsomal CLint [7]: 6 µL/min/mg
inhibition at 0.5 h, 30 µM (CYP3A4): 72%
Ki [2]: 0.8 nM
solubility kinetic [8]: 295 µM (≈ 124 µg/mL)
Kp uu [9]: 0.17
bioavailability [10]: 141%
Papp A→B [11]: 37.6 ×10⁻⁶ cm/s
IC50 [12]: 16000 nM
CL/F [13]: 40 mL/min/kg
half-life [14]: 0.8 h
IC50 [3]: 48 nM
efflux ratio [15]: 0.7
pKa [16]: 5.8
kinact (CYP3A [44]): 0.00113 s⁻¹
EC50 [6]: 305 nM
microsomal CLint [17]: 1 µL/min/mg
Activity (DRG neuron): Active
Ki (CYP3A [47]): 12400 nM
